Assay results published in ChEMBL document CHEMBL1201862, “PubChem BioAssay data set” (2004).
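Cells were grown in 96-well plates and exposed to each compound for 48 hours at five concentrations; endpoints were interpolated linearly between bracketing concentrations, or set to the highest concentration if not reached. The concentration for 50% growth inhibition is given as GI50.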 The source made the active and inactive calls. Rule as the data show it: active = GI50 up to about 1.1 µM and inactive = higher.

Columns and labels:
Assay in all cases: growth of human tumour cells (NCI), 48 h
[1] = tested on: RPMI-8226
[2] = tested on: Malme-3M
[3] = tested on: RXF 393
[4] = tested on: CAKI-1
[5] = tested on: KM12
[6] = tested on: U-251
[7] = tested on: HCT-15
[8] = tested on: M14
[9] = tested on: SF-295
[10] = tested on: OVCAR-8
[11] = tested on: SF-539
[12] = tested on: HOP-92
[13] = tested on: SK-OV-3
[14] = tested on: SNB-75
[15] = tested on: NCI-H460
[16] = tested on: SNB-19
[17] = tested on: NCI-H226
[18] = tested on: TK-10
[19] = tested on: NCI-H23
[20] = tested on: HCT-116
[21] = tested on: SF-268
[22] = tested on: SR
[23] = tested on: IGROV-1
[24] = tested on: EKVX
[25] = tested on: LOX IMVI
[26] = tested on: A549
[27] = tested on: SK-MEL-28
[28] = tested on: ACHN
[29] = tested on: OVCAR-3
[30] = tested on: MDA-N
[31] = tested on: SK-MEL-2
[32] = tested on: SN12C
[33] = tested on: HT-29
[34] = tested on: BT-549
[35] = tested on: UO-31
[36] = tested on: HCC 2998
[37] = tested on: 786-0
[38] = tested on: PC-3
[39] = tested on: MCF7
[40] = tested on: SW-620
[41] = tested on: HL-60
[42] = tested on: NCI/ADR-RES
[43] = tested on: DU-145
[44] = tested on: MDA-MB-435
[45] = tested on: OVCAR-5
[46] = tested on: COLO 205
[47] = tested on: HOP-62
[48] = tested on: SK-MEL-5
[49] = tested on: A498
[50] = tested on: UACC-62
[51] = tested on: K562
[52] = tested on: OVCAR-4
[53] = tested on: T47D
[54] = tested on: CCRF-CEM
[55] = tested on: MOLT-4
[56] = tested on: Hs-578T
[57] = tested on: UACC-257
[58] = tested on: MDA-MB-231
[59] = tested on: NCI-H522

N=C(N)NS(=O)(=O)c1ccc(N/N=C2/CCOC2=O)cc1
GI50 [1]: > 100 µM (inactive) | GI50 [2]: > 100 µM (inactive) | GI50 [3]: > 100 µM (inactive) | GI50 [4]: > 100 µM (inactive) | GI50 [5]: > 100 µM (inactive) | GI50 [6]: 41.2 µM (inactive) | GI50 [7]: > 100 µM | GI50 [8]: > 100 µM (inactive) | GI50 [9]: 49.7 µM (inactive) | GI50 [10]: 49.5 µM (inactive) | GI50 [11]: > 100 µM (inactive) | GI50 [12]: 63.2 µM (inactive) | GI50 [13]: 40.6 µM (inactive) | GI50 [14]: 21.7 µM (inactive) | GI50 [15]: > 100 µM (inactive) | GI50 [16]: > 100 µM (inactive) | GI50 [17]: > 100 µM (inactive) | GI50 [18]: > 100 µM (inactive) | GI50 [19]: > 100 µM (inactive) | GI50 [20]: > 100 µM (inactive) | GI50 [21]: 45.1 µM (inactive) | GI50 [22]: 70.6 µM (inactive) | GI50 [23]: > 100 µM (inactive) | GI50 [24]: > 100 µM (inactive) | GI50 [25]: > 100 µM (inactive) | GI50 [26]: > 100 µM (inactive) | GI50 [27]: > 100 µM (inactive) | GI50 [28]: 63.5 µM (inactive) | GI50 [29]: > 100 µM (inactive) | GI50 [30]: > 100 µM (inactive) | GI50 [31]: > 100 µM (inactive) | GI50 [32]: 65.5 µM (inactive) | GI50 [33]: > 100 µM (inactive) | GI50 [34]: > 100 µM (inactive) | GI50 [35]: > 100 µM (inactive) | GI50 [36]: > 100 µM (inactive) | GI50 [37]: > 100 µM (inactive) | GI50 [38]: 80.4 µM (inactive) | GI50 [39]: > 100 µM (inactive) | GI50 [40]: > 100 µM (inactive) | GI50 [41]: > 100 µM (inactive) | GI50 [42]: > 100 µM (inactive) | GI50 [43]: > 100 µM (inactive) | GI50 [44]: > 100 µM (inactive) | GI50 [45]: > 100 µM (inactive) | GI50 [46]: > 100 µM (inactive) | GI50 [47]: 26.6 µM (inactive) | GI50 [48]: > 100 µM (inactive) | GI50 [49]: > 100 µM (inactive) | GI50 [50]: > 100 µM (inactive) | GI50 [51]: 45.3 µM (inactive) | GI50 [52]: > 100 µM (inactive) | GI50 [53]: 49.1 µM (inactive) | GI50 [54]: > 100 µM (inactive) | GI50 [55]: 2.95 µM (inactive) | GI50 [56]: 57.8 µM (inactive) | GI50 [57]: > 100 µM (inactive) | GI50 [58]: > 100 µM (inactive)

CC(C)c1c(P(=O)(c2ccccc2)c2ccccc2)n(C)c2ccccc12
GI50 [1]: 56.6 µM (inactive) | GI50 [2]: > 100 µM (inactive) | GI50 [5]: 51.8 µM (inactive) | GI50 [6]: 97.3 µM (inactive) | GI50 [7]: 72.3 µM | GI50 [8]: 64.4 µM (inactive) | GI50 [59]: 23.4 µM (inactive) | GI50 [9]: 45.6 µM (inactive) | GI50 [10]: 89.9 µM (inactive) | GI50 [11]: > 100 µM (inactive) | GI50 [12]: > 100 µM (inactive) | GI50 [14]: 95.3 µM (inactive) | GI50 [15]: 66.8 µM (inactive) | GI50 [16]: 95.9 µM (inactive) | GI50 [17]: 52.8 µM (inactive) | GI50 [18]: > 100 µM (inactive) | GI50 [19]: 40.5 µM (inactive) | GI50 [20]: 35.9 µM (inactive) | GI50 [21]: 51.9 µM (inactive) | GI50 [22]: 49.9 µM (inactive) | GI50 [24]: > 100 µM (inactive) | GI50 [25]: > 100 µM (inactive) | GI50 [26]: 51.6 µM (inactive) | GI50 [27]: 76.7 µM (inactive) | GI50 [28]: 35.2 µM (inactive) | GI50 [29]: 26.4 µM (inactive) | GI50 [30]: 56.1 µM (inactive) | GI50 [31]: 88.3 µM (inactive) | GI50 [32]: > 100 µM (inactive) | GI50 [33]: 53.8 µM (inactive) | GI50 [34]: > 100 µM (inactive) | GI50 [35]: 31.8 µM (inactive) | GI50 [36]: > 100 µM (inactive) | GI50 [37]: > 100 µM (inactive) | GI50 [38]: 58.7 µM (inactive) | GI50 [39]: > 100 µM (inactive) | GI50 [40]: > 100 µM (inactive) | GI50 [41]: 28.1 µM (inactive) | GI50 [42]: 43.1 µM (inactive) | GI50 [43]: 80.2 µM (inactive) | GI50 [44]: 45.5 µM (inactive) | GI50 [45]: 54.7 µM (inactive) | GI50 [46]: 32.4 µM (inactive) | GI50 [47]: > 100 µM (inactive) | GI50 [49]: > 100 µM (inactive) | GI50 [51]: 37.8 µM (inactive) | GI50 [52]: 71.4 µM (inactive) | GI50 [53]: 77.1 µM (inactive) | GI50 [54]: 59 µM (inactive) | GI50 [55]: 34.8 µM (inactive) | GI50 [56]: > 100 µM (inactive) | GI50 [57]: 90.6 µM (inactive) | GI50 [58]: > 100 µM (inactive)

CCOC(=O)N1CC2(C(=O)OC)C=CC1C(C(=O)OC)C2 (stereo not drawn)
GI50 [1]: > 100 µM (inactive) | GI50 [2]: > 100 µM (inactive) | GI50 [3]: > 100 µM (inactive) | GI50 [4]: > 100 µM (inactive) | GI50 [5]: > 100 µM (inactive) | GI50 [6]: > 100 µM (inactive) | GI50 [7]: > 100 µM | GI50 [8]: > 100 µM (inactive) | GI50 [59]: > 100 µM (inactive) | GI50 [9]: > 100 µM (inactive) | GI50 [10]: > 100 µM (inactive) | GI50 [11]: > 100 µM (inactive) | GI50 [13]: > 100 µM (inactive) | GI50 [14]: > 100 µM (inactive) | GI50 [15]: > 100 µM (inactive) | GI50 [16]: > 100 µM (inactive) | GI50 [17]: > 100 µM (inactive) | GI50 [18]: > 100 µM (inactive) | GI50 [19]: > 100 µM (inactive) | GI50 [20]: > 100 µM (inactive) | GI50 [21]: > 100 µM (inactive) | GI50 [22]: > 100 µM (inactive) | GI50 [23]: > 100 µM (inactive) | GI50 [24]: > 100 µM (inactive) | GI50 [25]: > 100 µM (inactive) | GI50 [26]: > 100 µM (inactive) | GI50 [27]: > 100 µM (inactive) | GI50 [28]: > 100 µM (inactive) | GI50 [29]: > 100 µM (inactive) | GI50 [30]: > 100 µM (inactive) | GI50 [31]: > 100 µM (inactive) | GI50 [32]: > 100 µM (inactive) | GI50 [34]: > 100 µM (inactive) | GI50 [35]: > 100 µM (inactive) | GI50 [36]: > 100 µM (inactive) | GI50 [37]: > 100 µM (inactive) | GI50 [38]: > 100 µM (inactive) | GI50 [39]: > 100 µM (inactive) | GI50 [40]: > 100 µM (inactive) | GI50 [41]: > 100 µM (inactive) | GI50 [42]: > 100 µM (inactive) | GI50 [43]: > 100 µM (inactive) | GI50 [44]: > 100 µM (inactive) | GI50 [45]: > 100 µM (inactive) | GI50 [46]: > 100 µM (inactive) | GI50 [47]: > 100 µM (inactive) | GI50 [48]: > 100 µM (inactive) | GI50 [49]: > 100 µM (inactive) | GI50 [50]: > 100 µM (inactive) | GI50 [51]: > 100 µM (inactive) | GI50 [52]: > 100 µM (inactive) | GI50 [53]: > 100 µM (inactive) | GI50 [54]: > 100 µM (inactive) | GI50 [55]: > 100 µM (inactive) | GI50 [56]: > 100 µM (inactive) | GI50 [57]: > 100 µM (inactive) | GI50 [58]: > 100 µM (inactive)
